According to the NIST ThermoML archive (doi:10.1016/j.tca.2017.12.010):
Numbers after ± are expanded uncertainties.

Legend:
[1] = Liquid, DSC
[2] = Boiling temperature at pressure P; settings: Liquid, DSC

C1CCCCC1 [cyclohexane]
vapor or sublimation pressure ([1]; 353.82 K): 101.3 ± 7.9 kPa

Cc1ccccc1 [toluene]
vapor or sublimation pressure ([1]; 383.6 K): 101.3 ± 7.9 kPa

CO [methanol]
vapor or sublimation pressure ([1]; 337.78 K): 101.3 ± 7.9 kPa

CC(C)O [propan-2-ol]
vapor or sublimation pressure ([1]; 355.71 K): 101.3 ± 7.9 kPa

O [water]
Boiling temperature at pressure P ([2]; 92.9 kPa): 97.82 ± 1.6 °C
Boiling temperature at pressure P ([2]; 93 kPa): 97.84 ± 1.6 °C
Boiling temperature at pressure P ([2]; 93.5 kPa): 97.94 ± 1.6 °C
Boiling temperature at pressure P ([2]; 94.1 kPa): 98.06 ± 1.6 °C
Boiling temperature at pressure P ([2]; 101.3 kPa): 100.01 ± 1.6 °C
Boiling temperature at pressure P ([2]; 395 kPa): 143.21 ± 1.6 °C
Boiling temperature at pressure P ([2]; 585 kPa): 157.83 ± 1.6 °C
Boiling temperature at pressure P ([2]; 592 kPa): 158.51 ± 1.6 °C
Boiling temperature at pressure P ([2]; 791 kPa): 169.38 ± 1.6 °C
Boiling temperature at pressure P ([2]; 1091 kPa): 183.29 ± 1.6 °C
Boiling temperature at pressure P ([2]; 1392 kPa): 194.26 ± 1.6 °C
Boiling temperature at pressure P ([2]; 1689 kPa): 203.20 ± 1.6 °C
Boiling temperature at pressure P ([2]; 2088 kPa): 213.26 ± 1.6 °C
